Assays:
Candida parapsilosis = assay: Antifungal activity in vitro, resazurin growth inhibition: Candida parapsilosis (B66126); type: cell-based; conditions: for IC50: Lodderomyces parapsilosis, read-out: Inf. D: Candida parapsilosis B66126, pIC50 (converted)
Outline: (§1)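 Fungi (10^3 cfu/well) grown in RPMI-1640 with L-glutamine, 2% glucose, MOPS pH 7.0, against 2- or 4-fold compound dilutions up to 64 μM. Dermatophytes incubated one week or more at 27° C. Growth inhibition read fluorimetrically (λex 550, λem 590 nm) after resazurin addition and further incubation.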

Rhizomucor miehei = assay: Antifungal activity in vitro, resazurin growth inhibition: Rhizomucor miehei (IHEM13391); type: cell-based; conditions: for IC50: read-out: Inf. K: Rhizomucor miehei IHEM13391, pIC50 (converted)
Outline: as §1

Aspergillus fumigatus = assay: Antifungal activity in vitro, resazurin growth inhibition: Aspergillus fumigatus (B42928); type: cell-based; conditions: for IC50: read-out: Inf. E: Aspergillus fumigatus B42928, pIC50 (converted)
Outline: as §1

Scedosporium prolificans = assay: Antifungal activity in vitro, resazurin growth inhibition: Scedosporium prolificans (IHEM21157); type: cell-based; conditions: for IC50: Lomentospora prolificans, read-out: Inf. I: Scedosporium prolificans IHEM21157, pIC50 (converted)
Outline: as §1

Rhizopus oryzae = assay: Antifungal activity in vitro, resazurin growth inhibition: Rhizopus oryzae (IHEM5223); type: cell-based; conditions: for IC50: Rhizopus arrhizus, read-out: Inf. J: Rhizopus oryzae IHEM5223, pIC50 (converted)
Outline: as §1

Microsporum canis = assay: Antifungal activity in vitro, resazurin growth inhibition: Microsporum canis (B68128); type: cell-based; conditions: for IC50: read-out: Inf. B: Microsporum canis B68128, pIC50 (converted)
Outline: (§2)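 Compound dilutions, with 64 μM as the highest in-test level, are spotted onto plates, then an inoculum of 10^3 cfu in RPMI-1640 plus 2% glucose (MOPS, pH 7.0±0.1) is added. Plates are incubated at species-dependent time and temperature, up to a week or more at 27° C. for dermatophytes.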

Cryptococcus neoformans = assay: Antifungal activity in vitro, resazurin growth inhibition: Cryptococcus neoformans (B66663); type: cell-based; conditions: for IC50: read-out: Inf. F: Cryptococcus neoformans B66663, pIC50 (converted)
Outline: as §1

Sporothrix schenkii = assay: Antifungal activity in vitro, resazurin growth inhibition: Sporothrix schenkii (B62482); type: cell-based; conditions: for IC50: read-out: Inf. A: Sporothrix schenkii B62482, pIC50 (converted)
Outline: as §1

Trichophyton rubrum = assay: Antifungal activity in vitro, resazurin growth inhibition: Trichophyton rubrum (B68183); type: cell-based; conditions: for IC50: read-out: Inf. C: Trichophyton rubrum B68183, pIC50 (converted)
Outline: as §2

[1] = system: Trichophyton mentagrophytes; assay: Antifungal activity in vitro, resazurin growth inhibition: Trichophyton mentagrophytes (B70554); type: cell-based; conditions: for IC50: read-out: Inf. G: Trichophyton mentagrophytes B70554, pIC50 (converted)
Outline: as §2

Scedosporium apiospermum = assay: Antifungal activity in vitro, resazurin growth inhibition: Scedosporium apiospermum (IHEM3817); type: cell-based; conditions: for IC50: read-out: Inf. H: Scedosporium apiospermum IHEM3817, pIC50 (converted)
Outline: as §1

IC50 (Candida parapsilosis)	IC50 (Rhizomucor miehei)	IC50 (Aspergillus fumigatus)	melting point	IC50 (Scedosporium prolificans)	IC50 (Rhizopus oryzae)	IC50 (Microsporum canis)	IC50 (Cryptococcus neoformans)	IC50 (Sporothrix schenkii)	Inf. D: Candida parapsilosis B66126, pIC50 (Candida parapsilosis)	Inf. K: Rhizomucor miehei IHEM13391, pIC50 (Rhizomucor miehei)	Inf. E: Aspergillus fumigatus B42928, pIC50 (Aspergillus fumigatus)	Inf. I: Scedosporium prolificans IHEM21157, pIC50 (Scedosporium prolificans)	Inf. J: Rhizopus oryzae IHEM5223, pIC50 (Rhizopus oryzae)	Inf. B: Microsporum canis B68128, pIC50 (Microsporum canis)	Inf. F: Cryptococcus neoformans B66663, pIC50 (Cryptococcus neoformans)	Inf. A: Sporothrix schenkii B62482, pIC50 (Sporothrix schenkii)	Inf. C: Trichophyton rubrum B68183, pIC50 (Trichophyton rubrum)	Inf. G: Trichophyton mentagrophytes B70554, pIC50 [1]	Inf. H: Scedosporium apiospermum IHEM3817, pIC50 (Scedosporium apiospermum)	SMILES	other results
> 64.6 µM	> 64.6 µM	1.35 µM	158.2 to 160.6 °C	3.02 µM	> 64.6 µM	0.126 µM	> 64.6 µM	> 64.6 µM												FC(F)(F)c1cc(C2=NCc3c(Cl)cccc3-n3cccc32)ccn1 [Compound 3]	IC50 (Trichophyton rubrum): 0.0427 µM; IC50 [1]: 0.229 µM; IC50 (Scedosporium apiospermum): 2.14 µM
> 64.6 µM	7.94 µM	2.69 µM	159.9 to 160.8 °C	0.309 µM	> 64.6 µM	0.316 µM	3.55 µM	0.661 µM												Clc1cccc2c1-n1cccc1C(c1cc3ccccc3o1)=NC2 [Compound 5]	IC50 (Trichophyton rubrum): 0.0692 µM; IC50 [1]: 0.107 µM; IC50 (Scedosporium apiospermum): 6.03 µM
9.77 µM	7.08 µM	0.302 µM	175.2 to 177.3 °C	0.214 µM	> 64.6 µM	0.174 µM	0.759 µM	2.75 µM												Cc1cccc2cc(C3=NCc4c(Cl)cccc4-n4cccc43)oc12 [Compound 7]	IC50 (Trichophyton rubrum): 0.0646 µM; IC50 [1]: 0.245 µM; IC50 (Scedosporium apiospermum): 0.513 µM
0.794 µM	44.7 µM	0.49 µM	163.9 to 164.1 °C	0.437 µM	> 15.8 µM	0.427 µM	4.27 µM	14.1 µM												Clc1cccc2c1CN=C(c1ccc3occc3c1)c1cccn1-2 [Compound 8]	IC50 (Trichophyton rubrum): 0.0389 µM; IC50 [1]: 0.178 µM; IC50 (Scedosporium apiospermum): 10.2 µM
									<4.19	<4.19	6.30	4.80	<4.19	6.54	6.43	6.06	6.87	6.80	<4.19	Clc1cccc2c1-n1cccc1C(c1ccc3sccc3c1)=NC2 [Compound 174]	
									6.17	5.14	6.85	5.56	5.07	6.90	6.41	5.70	7.36	7.11	5.08	Fc1cccc2c1CN=C(c1ccc3sccc3c1)c1cccn1-2 [Compound 175]	
									6.03	<4.19	6.49	6.15	<4.19	6.89	6.49	5.70	6.90	6.57	5.54	Fc1cc(F)c2c(c1)-n1cccc1C(c1ccc3sccc3c1)=NC2 [Compound 176]	
									5.31	<4.49	5.26	4.96	<4.49	5.85	4.49	4.77	6.68	5.99	<4.49	Cc1cccc2c1CN=C(c1ccc3ncsc3c1)c1cccn1-2 [Compound 183]	
									<4.19	<4.19	6.27	6.15	<4.19	6.70	<4.19	<4.19	7.32	6.51	<4.19	Clc1cccc2c1CN=C(c1ccc3ncsc3c1)c1cccn1-2 [Compound 184]	
									4.23	<4.19	6.29	5.16	<4.19	6.39	6.33	5.28	6.73	6.04	4.41	Clc1ccc2c(c1)-n1cccc1C(c1ccc3ncsc3c1)=NC2 [Compound 185]	
									<4.19	4.35	5.63	5.40	<4.19	5.95	5.69	5.15	6.34	6.06	4.78	Clc1cccc2c1-n1cccc1C(c1ccc3ncsc3c1)=NC2 [Compound 186]	
									4.50	<4.19	5.98	6.92	<4.19	5.68	5.46	5.09	6.77	6.22	5.79	Clc1cc(Cl)c2c(c1)-n1cccc1C(c1ccc3ncsc3c1)=NC2 [Compound 187]	
									4.90	4.42	5.56	6.24	<4.19	6.20	4.98	<4.19	6.64	6.05	6.29	Clc1cccc2c1CN=C(c1ccc3scnc3c1)c1cccn1-2 [Compound 188]	
									<4.19	<4.19	5.42	6.35	<4.19	5.69	5.00	4.75	6.18	5.80	4.88	Cc1nc2cc(C3=NCc4c(Cl)cccc4-n4cccc43)ccc2s1 [Compound 191]	
									5.25	<4.19	5.65	5.72	<4.19	6.36	5.84	5.00	6.77	6.17	4.35	Cn1ccc2ccc(C3=NCc4c(Cl)cccc4-n4cccc43)cc21 [Compound 196]	

SMILES	IC50 (Candida parapsilosis)	IC50 (Rhizomucor miehei)	IC50 (Aspergillus fumigatus)	melting point	IC50 (Scedosporium prolificans)	IC50 (Rhizopus oryzae)	IC50 (Microsporum canis)	IC50 (Cryptococcus neoformans)	IC50 (Sporothrix schenkii)	Inf. D: Candida parapsilosis B66126, pIC50 (Candida parapsilosis)	Inf. K: Rhizomucor miehei IHEM13391, pIC50 (Rhizomucor miehei)	Inf. E: Aspergillus fumigatus B42928, pIC50 (Aspergillus fumigatus)	Inf. I: Scedosporium prolificans IHEM21157, pIC50 (Scedosporium prolificans)	Inf. J: Rhizopus oryzae IHEM5223, pIC50 (Rhizopus oryzae)	Inf. B: Microsporum canis B68128, pIC50 (Microsporum canis)	Inf. F: Cryptococcus neoformans B66663, pIC50 (Cryptococcus neoformans)	Inf. A: Sporothrix schenkii B62482, pIC50 (Sporothrix schenkii)	Inf. C: Trichophyton rubrum B68183, pIC50 (Trichophyton rubrum)	Inf. G: Trichophyton mentagrophytes B70554, pIC50 [1]	Inf. H: Scedosporium apiospermum IHEM3817, pIC50 (Scedosporium apiospermum)	other results
Cc1cccc2c1CNC(c1cc3ccccc3s1)c1cccn1-2.Cl (stereo not shown) [Compound 1]	45.7 µM	> 64.6 µM	2 µM	242.4 to 247.7 °C	1.82 µM	> 64.6 µM	0.447 µM	> 64.6 µM	3.02 µM												IC50 (Trichophyton rubrum): 0.0676 µM; IC50 [1]: 0.204 µM; IC50 (Scedosporium apiospermum): > 64.6 µM

From US9493468B2, “Antifungal 5,6-dihydro-4H-pyrrolo[1,2-a][1,4]benzo-diazepines and 6H-pyrrolo[1,2-a][1,4]benzodiazepines substituted with heterocyclic derivatives” (Janssen Pharmaceutica NV, priority 2011, dated 2016)
